Reference: article PMC5218480 (PLoS ONE, 2017)

System: MV-4-11 cells
Experiment: Gene expression microarray analysis (Affymetrix PrimeView) and GSEA
Assay type: cell-based, human
Set-up: RFU PODN (11730768_x_at) / Fold change /veh PODN (11730768_x_at) / RFU LINC00158 (11744669_a_at) / Fold change /veh LINC00158 (11744669_a_at) / RFU DUSP10 (11751237_a_at) / Fold change /veh DUSP10 (11751237_a_at) / RFU ID3 (11757404_x_at) / Fold change /veh ID3 (11757404_x_at) / RFU PLEKHG5 (11737974_s_at) / Fold change /veh PLEKHG5 (11737974_s_at) / RFU LRRC4B (11730491_at) / Fold change /veh LRRC4B (11730491_at) / RFU GIMAP4 (11747438_a_at) / Fold change /veh GIMAP4 (11747438_a_at) / RFU KRT8 (11758183_x_at) / Fold change /veh KRT8 (11758183_x_at) / RFU CNN1 (11734310_a_at) / Fold change /veh CNN1 (11734310_a_at) / RFU VPS37D (11726825_at) / Fold change /veh VPS37D (11726825_at) / RFU C10orf10 (11716522_x_at) / Fold change /veh C10orf10 (11716522_x_at) / RFU KIR2DL2 /// KIR2DL4 /// KIR2DL5A /// KIR2DL5B /// KIR2DS1 /// KIR2DS2 /// KIR2DS3 /// KIR2DS4 /// KIR3DL3 /// KIR3DL3 /// KIR3DS1 (11738374_at) / Fold change /veh KIR2DL2 /// KIR2DL4 /// KIR2DL5A /// KIR2DL5B /// KIR2DS1 /// KIR2DS2 /// KIR2DS3 /// KIR2DS4 /// KIR3DL3 /// KIR3DL3 /// KIR3DS1 (11738374_at) / RFU C1QL1 (11718748_at) / Fold change /veh C1QL1 (11718748_at) / RFU TMPRSS4 (11747572_a_at) / Fold change /veh TMPRSS4 (11747572_a_at) / RFU HAMP (11756126_x_at) / Fold change /veh HAMP (11756126_x_at) / RFU RNFT2 (11725882_a_at) / Fold change /veh RNFT2 (11725882_a_at) / RFU NR4A2 (11747474_a_at) / Fold change /veh NR4A2 (11747474_a_at) / RFU ABCC12 (11746883_a_at) / Fold change /veh ABCC12 (11746883_a_at) / RFU TMEM136 (11760407_x_at) / Fold change /veh TMEM136 (11760407_x_at) / RFU CLDN22 /// WWC2 (11732394_at) / Fold change /veh CLDN22 /// WWC2 (11732394_at) / RFU HLA-DPB1 (11760878_x_at) / Fold change /veh HLA-DPB1 (11760878_x_at) / RFU SPINT1 (11716480_a_at) / Fold change /veh SPINT1 (11716480_a_at) / RFU GAP43 (11754022_s_at) / Fold change /veh GAP43 (11754022_s_at) / RFU A4GNT (11735810_at) / Fold change /veh A4GNT (11735810_at) / RFU PRB3 (11715151_x_at) / Fold change /veh PRB3 (11715151_x_at) / RFU TUBB4B (11761932_at) / Fold change /veh TUBB4B (11761932_at) / RFU CAPN14 (11732068_a_at) / Fold change /veh CAPN14 (11732068_a_at) / RFU TMCC2 (11721928_a_at) / Fold change /veh TMCC2 (11721928_a_at) / RFU IRGQ (11745062_a_at) / Fold change /veh IRGQ (11745062_a_at) / RFU FAM174B (11720279_a_at) / Fold change /veh FAM174B (11720279_a_at) / RFU TMPRSS4 (11748680_a_at) / Fold change /veh TMPRSS4 (11748680_a_at) / RFU FAM212B (11763350_a_at) / Fold change /veh FAM212B (11763350_a_at) / RFU PLEKHG5 (11743358_a_at) / Fold change /veh PLEKHG5 (11743358_a_at) / RFU ZSCAN30 (11745921_a_at) / Fold change /veh ZSCAN30 (11745921_a_at) / RFU CMKLR1 (11741424_a_at) / Fold change /veh CMKLR1 (11741424_a_at) / RFU LOC101060620 /// MAPK8IP1 (11723275_at) / Fold change /veh LOC101060620 /// MAPK8IP1 (11723275_at) / RFU SPTSSB (11747773_x_at) / Fold change /veh SPTSSB (11747773_x_at) / RFU PRSS12 (11739890_at) / Fold change /veh PRSS12 (11739890_at) / RFU BIN1 (11741810_x_at) / Fold change /veh BIN1 (11741810_x_at) / RFU WNT11 (11732464_a_at) / Fold change /veh WNT11 (11732464_a_at) / RFU C10orf10 (11716521_a_at) / Fold change /veh C10orf10 (11716521_a_at) / RFU C5orf56 (11738089_at) / Fold change /veh C5orf56 (11738089_at) / RFU CYB561 (11721691_x_at) / Fold change /veh CYB561 (11721691_x_at) / RFU ANKRD19P (11752326_a_at) / Fold change /veh ANKRD19P (11752326_a_at) / RFU OR2T12 /// OR2T33 /// OR2T8 (11738714_s_at) / Fold change /veh OR2T12 /// OR2T33 /// OR2T8 (11738714_s_at) / RFU VCAN (11748164_a_at) / Fold change /veh VCAN (11748164_a_at) / RFU JSRP1 (11732532_at) / Fold change /veh JSRP1 (11732532_at) / RFU KRTAP10-11 (11738290_x_at) / Fold change /veh KRTAP10-11 (11738290_x_at) / RFU MYO3A (11730013_a_at) / Fold change /veh MYO3A (11730013_a_at) / RFU EBF3 (11725865_a_at) / Fold change /veh EBF3 (11725865_a_at) / RFU CAMK2N1 (11719241_x_at) / Fold change /veh CAMK2N1 (11719241_x_at) / RFU C5orf56 (11738088_a_at) / Fold change /veh C5orf56 (11738088_a_at) / RFU OLFML3 (11715873_a_at) / Fold change /veh OLFML3 (11715873_a_at) / RFU LOC100653217 /// NTM (11731650_a_at) / Fold change /veh LOC100653217 /// NTM (11731650_a_at) / RFU MAPK11 (11762145_a_at) / Fold change /veh MAPK11 (11762145_a_at) / RFU FIZ1 (11724087_x_at) / Fold change /veh FIZ1 (11724087_x_at) / RFU OASL (11726364_x_at) / Fold change /veh OASL (11726364_x_at) / RFU SOX15 (11748057_x_at) / Fold change /veh SOX15 (11748057_x_at) / RFU CD79A (11719716_a_at) / Fold change /veh CD79A (11719716_a_at) / RFU HIST1H1D (11736915_at) / Fold change /veh HIST1H1D (11736915_at) / RFU CASKIN2 (11723855_a_at) / Fold change /veh CASKIN2 (11723855_a_at) / RFU LOC730098 (11760151_x_at) / Fold change /veh LOC730098 (11760151_x_at) / RFU OR4N2 (11742367_at) / Fold change /veh OR4N2 (11742367_at) / RFU PRRT2 (11749266_a_at) / Fold change /veh PRRT2 (11749266_a_at) / RFU SNX32 (11753110_a_at) / Fold change /veh SNX32 (11753110_a_at) / RFU CDHR5 (11726645_a_at) / Fold change /veh CDHR5 (11726645_a_at) / RFU RCAN1 (11760418_a_at) / Fold change /veh RCAN1 (11760418_a_at) / RFU FAM167A (11723789_a_at) / Fold change /veh FAM167A (11723789_a_at) / RFU FAM26E (11764081_at) / Fold change /veh FAM26E (11764081_at) / RFU ISYNA1 (11749810_s_at) / Fold change /veh ISYNA1 (11749810_s_at) / RFU ACY1 (11761880_at) / Fold change /veh ACY1 (11761880_at) / RFU 11764098_at / Fold change /veh 11764098_at / RFU SAMD14 (11745864_x_at) / Fold change /veh SAMD14 (11745864_x_at) / RFU NPB (11741838_a_at) / Fold change /veh NPB (11741838_a_at) / RFU TMPRSS6 (11731388_a_at) / Fold change /veh TMPRSS6 (11731388_a_at) / RFU KRTAP10-2 (11738614_at) / Fold change /veh KRTAP10-2 (11738614_at) / RFU ARHGAP8 /// PRR5-ARHGAP8 (11727945_x_at) / Fold change /veh ARHGAP8 /// PRR5-ARHGAP8 (11727945_x_at) / RFU KRTAP5-7 /// NADSYN1 (11734609_at) / Fold change /veh KRTAP5-7 /// NADSYN1 (11734609_at) / RFU RASL12 (11751679_a_at) / Fold change /veh RASL12 (11751679_a_at) / RFU CDKN2B (11736163_a_at) / Fold change /veh CDKN2B (11736163_a_at) / RFU PRF1 (11729649_at) / Fold change /veh PRF1 (11729649_at) / RFU, ZNF638 /// ZNF638-IT1 / Fold change vs veh, ZNF638 /// ZNF638-IT1 / RFU, PANK3 / Fold change vs veh, PANK3 / RFU, SH3YL1 / Fold change vs veh, SH3YL1 / RFU, ZEB2 / Fold change vs veh, ZEB2 / RFU, NRIP1 / Fold change vs veh, NRIP1 / RFU, PTTG1IP / Fold change vs veh, PTTG1IP / RFU, CAPN2 / Fold change vs veh, CAPN2 / RFU, MED14 / Fold change vs veh, MED14 / RFU, SNORA58 / Fold change vs veh, SNORA58 / RFU, C1orf63 / Fold change vs veh, C1orf63 / RFU, LRRFIP1 / Fold change vs veh, LRRFIP1 / RFU, NDUFAF7 / Fold change vs veh, NDUFAF7 / RFU, SLC12A2 / Fold change vs veh, SLC12A2 / RFU, IBTK / Fold change vs veh, IBTK / RFU, ESF1 / Fold change vs veh, ESF1 / Fold change vs veh, TMEM50B / RFU, TAOK1 / Fold change vs veh, TAOK1 / RFU, ACBD3 / Fold change vs veh, ACBD3 / RFU, TMA16 / Fold change vs veh, TMA16 / RFU, RWDD3 / Fold change vs veh, RWDD3 / RFU, BCAT1 / Fold change vs veh, BCAT1 / RFU, EDEM3 / Fold change vs veh, EDEM3 / RFU, TMEM33 / Fold change vs veh, TMEM33 / RFU, WDR75 / Fold change vs veh, WDR75 / RFU, AHCTF1 / Fold change vs veh, AHCTF1 / RFU, TFRC / Fold change vs veh, TFRC / RFU, ZDHHC17 / Fold change vs veh, ZDHHC17 / RFU, NOM1 / Fold change vs veh, NOM1 / RFU, ARL8B / Fold change vs veh, ARL8B / RFU, ZBTB11 / Fold change vs veh, ZBTB11 / RFU, TAMM41 / Fold change vs veh, TAMM41 / RFU, KIAA1704 /// LOC100996395 / Fold change vs veh, KIAA1704 /// LOC100996395 / RFU, ING1 / Fold change vs veh, ING1 / RFU, TRMT61B / Fold change vs veh, TRMT61B / RFU, FUBP3 / Fold change vs veh, FUBP3 / RFU, TP53 / Fold change vs veh, TP53 / RFU, TNKS2 / Fold change vs veh, TNKS2 / RFU, ZFP14 / Fold change vs veh, ZFP14 / RFU, ACTR2 / Fold change vs veh, ACTR2 / RFU, PPP3R1 / Fold change vs veh, PPP3R1 / RFU, PIK3R1 / Fold change vs veh, PIK3R1 / RFU, HNRNPA1 / Fold change vs veh, HNRNPA1 / RFU, RNF170 / Fold change vs veh, RNF170 / RFU, ZNF28 / Fold change vs veh, ZNF28 / RFU, RNGTT / Fold change vs veh, RNGTT / RFU, OGT / Fold change vs veh, OGT / RFU, BRD1 / Fold change vs veh, BRD1 / RFU, MARS / Fold change vs veh, MARS / RFU, ZNF655 / Fold change vs veh, ZNF655 / RFU, FAHD1 / Fold change vs veh, FAHD1 / RFU, BDP1 / Fold change vs veh, BDP1 / RFU, LRRCC1 / Fold change vs veh, LRRCC1 / RFU, ARID1A / Fold change vs veh, ARID1A / RFU, ZNF146 / Fold change vs veh, ZNF146 / RFU, ZNF330 / Fold change vs veh, ZNF330 / RFU, GPN3 / Fold change vs veh, GPN3 / RFU, C9orf123 / Fold change vs veh, C9orf123 / RFU, N4BP2L2 / Fold change vs veh, N4BP2L2 / RFU, ARFIP1 / Fold change vs veh, ARFIP1 / RFU, FAM179B / Fold change vs veh, FAM179B / RFU, BCL10 / Fold change vs veh, BCL10 / RFU, UHRF1BP1L / Fold change vs veh, UHRF1BP1L / RFU, BET1 / Fold change vs veh, BET1 / RFU, CNOT2 / Fold change vs veh, CNOT2 / RFU, ZNF268 / Fold change vs veh, ZNF268 / Fold change vs veh, ZNF507 / RFU, DGCR2 / Fold change vs veh, DGCR2 / RFU, WDSUB1 / Fold change vs veh, WDSUB1 / Fold change vs veh, HSP90B1 /// MIR3652 / RFU, ADSS / Fold change vs veh, ADSS / RFU, GK / Fold change vs veh, GK / RFU, ZNF148 / Fold change vs veh, ZNF148 / RFU, TAF9 / Fold change vs veh, TAF9 / RFU, SLC1A5 / Fold change vs veh, SLC1A5 / RFU, SLMO2 / Fold change vs veh, SLMO2 / RFU, ABCC4 / Fold change vs veh, ABCC4 / RFU, LOC101060439 /// RAP1B / Fold change vs veh, LOC101060439 /// RAP1B / RFU, RFX7 / Fold change vs veh, RFX7 / RFU, GTPBP10 / Fold change vs veh, GTPBP10 / RFU, CNEP1R1 / Fold change vs veh, CNEP1R1 / RFU, BIVM-ERCC5 /// ERCC5 / Fold change vs veh, BIVM-ERCC5 /// ERCC5 / RFU, ILF3 / Fold change vs veh, ILF3 / RFU 11762660_at / Fold change /veh 11762660_at / RFU VCAN (11757783_s_at) / Fold change /veh VCAN (11757783_s_at) / RFU DDX43 (11728927_at) / Fold change /veh DDX43 (11728927_at) / RFU KRT8 (11758188_x_at) / Fold change /veh KRT8 (11758188_x_at) / RFU NKD1 (11759106_at) / Fold change /veh NKD1 (11759106_at) / RFU SRD5A1 (11742802_a_at) / Fold change /veh SRD5A1 (11742802_a_at) / RFU TPSAB1 /// TPSB2 (11721975_s_at) / Fold change /veh TPSAB1 /// TPSB2 (11721975_s_at) / RFU GSTM3 (11746129_a_at) / Fold change /veh GSTM3 (11746129_a_at) / RFU IL23R (11737362_x_at) / Fold change /veh IL23R (11737362_x_at) / RFU TMEM51 (11727254_a_at) / Fold change /veh TMEM51 (11727254_a_at) / RFU PIWIL2 (11732686_x_at) / Fold change /veh PIWIL2 (11732686_x_at) / RFU ORM1 (11744905_x_at) / Fold change /veh ORM1 (11744905_x_at) / RFU CCDC152 (11743942_at) / Fold change /veh CCDC152 (11743942_at) / RFU ECM1 (11717891_a_at) / Fold change /veh ECM1 (11717891_a_at) / RFU IL23R (11748794_a_at) / Fold change /veh IL23R (11748794_a_at) / RFU TNFAIP8L3 (11732012_x_at) / Fold change /veh TNFAIP8L3 (11732012_x_at) / RFU MBOAT4 (11741988_at) / Fold change /veh MBOAT4 (11741988_at) / RFU 11764193_at / Fold change /veh 11764193_at / RFU TMEM53 (11763286_at) / Fold change /veh TMEM53 (11763286_at) / RFU MAGEB2 (11727129_at) / Fold change /veh MAGEB2 (11727129_at) / RFU TMEM200A (11744735_a_at) / Fold change /veh TMEM200A (11744735_a_at) / RFU CCDC152 (11751479_a_at) / Fold change /veh CCDC152 (11751479_a_at) / RFU FAM211A (11726209_a_at) / Fold change /veh FAM211A (11726209_a_at) / RFU RGS16 (11746705_a_at) / Fold change /veh RGS16 (11746705_a_at) / RFU VCAN (11755009_s_at) / Fold change /veh VCAN (11755009_s_at) / RFU RHOB (11743442_s_at) / Fold change /veh RHOB (11743442_s_at) / RFU RGS16 (11720943_a_at) / Fold change /veh RGS16 (11720943_a_at) / RFU RGS16 (11720944_at) / Fold change /veh RGS16 (11720944_at) / RFU, VPS4B / Fold change vs veh, VPS4B / RFU, CREB1 / Fold change vs veh, CREB1 / RFU, DNAJC13 / Fold change vs veh, DNAJC13 / RFU, GNAQ / Fold change vs veh, GNAQ / RFU, CDK5R1 / Fold change vs veh, CDK5R1 / RFU, ZRANB3 / Fold change vs veh, ZRANB3 / RFU, CUL4A / Fold change vs veh, CUL4A / RFU, CCNY / Fold change vs veh, CCNY / RFU, UFL1 / Fold change vs veh, UFL1 / RFU, COG3 / Fold change vs veh, COG3 / RFU, DIAPH2 / Fold change vs veh, DIAPH2 / RFU, SKA2 / Fold change vs veh, SKA2 / RFU, AFF3 / Fold change vs veh, AFF3 / RFU, LMF1 / Fold change vs veh, LMF1 / RFU, IPO11 / Fold change vs veh, IPO11 / RFU, DFFB / Fold change vs veh, DFFB / RFU, FOXP1 / Fold change vs veh, FOXP1 / RFU, CARD8 / Fold change vs veh, CARD8 / RFU, STRN3 / Fold change vs veh, STRN3 / RFU, ADK / Fold change vs veh, ADK / RFU, RASSF2 / Fold change vs veh, RASSF2 / RFU, WIPF1 / Fold change vs veh, WIPF1 / RFU, LARP1B / Fold change vs veh, LARP1B / RFU, RASA1 / Fold change vs veh, RASA1 / RFU, RB1 / Fold change vs veh, RB1 / RFU, PPFIA1 / Fold change vs veh, PPFIA1 / RFU, MAT2A / Fold change vs veh, MAT2A / RFU, CCT5 / Fold change vs veh, CCT5 / RFU, WDR92 / Fold change vs veh, WDR92 / RFU, CUX1 / Fold change vs veh, CUX1 / RFU, TTC7A / Fold change vs veh, TTC7A / RFU, TMEM135 / Fold change vs veh, TMEM135 / RFU, DEPTOR / Fold change vs veh, DEPTOR / RFU, CPM / Fold change vs veh, CPM / RFU, DNAJB6 / Fold change vs veh, DNAJB6 / RFU, CACNA2D3 / Fold change vs veh, CACNA2D3 / RFU, DTX4 / Fold change vs veh, DTX4 / RFU, TFCP2 / Fold change vs veh, TFCP2 / RFU, GMCL1 /// GMCL1P1 / Fold change vs veh, GMCL1 /// GMCL1P1 / RFU, AEBP2 / Fold change vs veh, AEBP2 / RFU, SNHG1 /// SNORD22 /// SNORD25 /// SNORD26 /// SNORD27 /// SNORD28 /// SNORD29 /// SNORD31 / Fold change vs veh, SNHG1 /// SNORD22 /// SNORD25 /// SNORD26 /// SNORD27 /// SNORD28 /// SNORD29 /// SNORD31 / Fold change (Aza/veh), C12orf56 (ProbeSet 11735607_a_at) / Fold change (ACY-1035/veh), C12orf56 (ProbeSet 11735607_a_at) / Fold change (Aza/veh), FGFR1OP (ProbeSet 11751329_s_at) / Fold change (ACY-1035/veh), FGFR1OP (ProbeSet 11751329_s_at) / Fold change (Aza/veh), VPS36 (ProbeSet 11739960_a_at) / Fold change (ACY-1035/veh), VPS36 (ProbeSet 11739960_a_at) / RFU SYPL1 (11715823_x_at) / Fold change /veh SYPL1 (11715823_x_at) / RFU IGFBP7 (11715501_s_at) / Fold change /veh IGFBP7 (11715501_s_at) / RFU REEP3 (11722064_at) / Fold change /veh REEP3 (11722064_at) / RFU IGLL1 (11728026_x_at) / Fold change /veh IGLL1 (11728026_x_at): dose or concentration left out as unconfirmed
Details: ProbeSet 11716931_at; LIST B

Nc1ccc(-c2cccs2)cc1NC(=O)c1ccc2c(c1)cc(C1CC1)n2CCN1CCOCC1 [ACY-1035]
Fold change vs veh, DGCR2: 1.13
